Data reported in ChEMBL document CHEMBL1158404, “Antifungal activity of alkyl and heterocyclic aza-derivatives of gossypol as well as their complexes with NaClO4 against Fusarium oxysporum f. sp. lupini” (2009).

Tests used:
Assay type in all cases: functional
Fusarium oxysporum [1] = assay: Antifungal activity against Fusarium oxysporum f. sp. lupini at 20 ug/ml after 48 hrs
Fusarium oxysporum [2] = assay: Antifungal activity against Fusarium oxysporum f. sp. lupini at 20 ug/ml after 96 hrs
Fusarium oxysporum [3] = assay: Antifungal activity against Fusarium oxysporum f. sp. lupini at 20 ug/ml after 144 hrs
Fusarium oxysporum [4] = assay: Antifungal activity against Fusarium oxysporum f. sp. lupini at 20 ug/ml after 192 hrs
Fusarium oxysporum [5] = assay: Antifungal activity against Fusarium oxysporum f. sp. lupini at 20 ug/ml after 192 hrs relative to control; details: read-out: GI
Fusarium oxysporum [6] = assay: Antifungal activity against Fusarium oxysporum f. sp. lupini at 1 ug/ml after 48 hrs
Fusarium oxysporum [7] = assay: Antifungal activity against Fusarium oxysporum f. sp. lupini at 1 ug/ml after 96 hrs
Fusarium oxysporum [8] = assay: Antifungal activity against Fusarium oxysporum f. sp. lupini at 1 ug/ml after 144 hrs
Fusarium oxysporum [9] = assay: Antifungal activity against Fusarium oxysporum f. sp. lupini at 1 ug/ml after 192 hrs
Fusarium oxysporum [10] = assay: Antifungal activity against Fusarium oxysporum f. sp. lupini at 1 ug/ml after 192 hrs relative to control; details: read-out: GI
Fusarium oxysporum [11] = assay: Antifungal activity against Fusarium oxysporum f. sp. lupini at 0.5 ug/ml after 48 hrs
Fusarium oxysporum [12] = assay: Antifungal activity against Fusarium oxysporum f. sp. lupini at 0.5 ug/ml after 96 hrs
Fusarium oxysporum [13] = assay: Antifungal activity against Fusarium oxysporum f. sp. lupini at 0.5 ug/ml after 144 hrs
Fusarium oxysporum [14] = assay: Antifungal activity against Fusarium oxysporum f. sp. lupini at 0.5 ug/ml after 192 hrs
Fusarium oxysporum [15] = assay: Antifungal activity against Fusarium oxysporum f. sp. lupini at 0.5 ug/ml after 192 hrs relative to control; details: read-out: GI
Fusarium oxysporum [16] = assay: Antifungal activity against Fusarium oxysporum f. sp. lupini at 0.1 ug/ml after 48 hrs
Fusarium oxysporum [17] = assay: Antifungal activity against Fusarium oxysporum f. sp. lupini at 0.1 ug/ml after 96 hrs
Fusarium oxysporum [18] = assay: Antifungal activity against Fusarium oxysporum f. sp. lupini at 0.1 ug/ml after 144 hrs
Fusarium oxysporum [19] = assay: Antifungal activity against Fusarium oxysporum f. sp. lupini at 0.1 ug/ml after 192 hrs
Fusarium oxysporum [20] = assay: Antifungal activity against Fusarium oxysporum f. sp. lupini at 0.1 ug/ml after 192 hrs relative to control; details: read-out: GI

In the case of `Cc1cc2c(C(C)C)c(O)c(O)c(C=O)c2c(O)c1-c1c(C)cc2c(C(C)C)c(O)c(O)c(C=O)c2c1O` [GOSSYPOL], the “Radial growth inhibition of fungi (Ā) (mm)” value (shortened to “Radial growth inhibition”) (Fusarium oxysporum [1]) is reported as 14.88 mm, the “Radial growth inhibition” value (Fusarium oxysporum [2]) is reported as 25.25 mm and the “Radial growth inhibition” value (Fusarium oxysporum [3]) is reported as 35 mm. For the same compound, the “Radial growth inhibition” value (Fusarium oxysporum [4]) was 46 mm, the inhibition of growth at 20 µg/mL (Fusarium oxysporum [5]) was 22.4% and the “Radial growth inhibition” value (Fusarium oxysporum [6]) was 17.25 mm. For the same compound, the “Radial growth inhibition” value (Fusarium oxysporum [7]) was 26.25 mm, the “Radial growth inhibition” value (Fusarium oxysporum [8]) was 36.75 mm and the “Radial growth inhibition” value (Fusarium oxysporum [9]) was 47.25 mm. The inhibition of growth at 1 µg/mL (Fusarium oxysporum [10]) was 20.3%, the “Radial growth inhibition” value (Fusarium oxysporum [11]) was 18.63 mm and the “Radial growth inhibition” value (Fusarium oxysporum [12]) was 27.88 mm. The “Radial growth inhibition” value (Fusarium oxysporum [13]) was 39.5 mm, the “Radial growth inhibition” value (Fusarium oxysporum [14]) was 50.5 mm and the inhibition of growth at 0.5 µg/mL (Fusarium oxysporum [15]) was 14.8%. The “Radial growth inhibition” value (Fusarium oxysporum [16]) was 19.63 mm, the “Radial growth inhibition” value (Fusarium oxysporum [17]) was 30.63 mm and the “Radial growth inhibition” value (Fusarium oxysporum [18]) was 42.75 mm. The “Radial growth inhibition” value (Fusarium oxysporum [19]) was 55 mm and the inhibition of growth at 0.1 µg/mL (Fusarium oxysporum [20]) was 7.2%.
